# Data as given in patent US4294843A, “Anti-protozoal oxadiazole derivatives” (Burroughs Wellcome Co., priority 1978, dated 1981).
# Where a name gives a salt, the structure may show the parent alone.
# Test system: P. berghei
# Assay: percentage inhibition of P. berghei (blood parasitaemia) in mice, seven oral doses
# Format: in vivo
# Settings: Plasmodium berghei, 96 h, parasitaemia on fourth day; for inhibition in vivo at 10 mg/kg: 7 × 10 mg/kg oral; for inhibition in vivo at 100 mg/kg: 7 × 100 mg/kg oral
# Excerpt: Groups of five mice were inoculated intraperitoneally with the normal strain of P. berghei. The mice on test received seven oral doses of drug beginning on the afternoon of the day of infection then twice a day for the following three days. Blood parasitaemias were estimated on the fourth day and compared with those of the untreated controls.
# The results are given in Table 1, the results being expressed as percentage inhibition of P. berghei.
SMILES,inhibition in vivo at 10 mg/kg,inhibition in vivo at 100 mg/kg
"CN(C)c1ccccc1SCc1ncon1 [Example 1, 3-(2-Dimethylaminophenylthiomethyl)-1,2,4-oxadiazole]",65%,100%
"CN(C)c1ccccc1SCc1noc(-c2ccccc2)n1 [Example 2, 3-(2-Dimethylaminophenylthiomethyl)-5-phenyl-1,2,4-oxadiazole]",–,83%
"CNc1ccccc1SCc1ncon1 [Example 4, 3-(2-Methylaminophenylthiomethyl)-1,2,4-oxadiazole]",67%,97%
"Cc1ccc(SCc2ncon2)c(N)c1 [Example 6, 3-(2-Amino-4-methylphenylthiomethyl)-1,2,4-oxadiazole]",55%,99%
"Cc1ccc(N)c(SCc2ncon2)c1 [Example 7, 3-(2-Amino-5-methylphenylthiomethyl)-1,2,4-oxadiazole]",46%,99%
"Nc1cc(Cl)ccc1SCc1ncon1 [Example 8, 3-(2-Amino-4-chlorophenylthiomethyl)-1,2,4-oxadiazole]",89%,100%
"Nc1cccc(Cl)c1SCc1ncon1 [Example 9, 3-(2-Amino-6-chlorophenylthiomethyl)-1,2,4-oxadiazole]",32%,89.6%
"Nc1cc(Br)ccc1SCc1ncon1 [Example 10, 3-(2-Amino-4-bromophenylthiomethyl)-1,2,4-oxadiazole]",85%,99%
"Nc1ccccc1SCc1noc(-c2ccc(Cl)cc2)n1 [Example 11, 3-(2-Aminophenylthiomethyl)-5-(4-chlorophenyl)-1,2,4-oxadiazole]",54%,99%
"Nc1ccccc1SCc1noc(CSc2ccccc2N)n1 [Example 13, 3,5-Di-(2-aminophenylthiomethyl)-1,2,4-oxadiazole]",77%,–
"Nc1ccccc1SCc1noc(-c2ccccc2)n1 [Example 14, 3-(2-Aminophenylthiomethyl)-5-phenyl-1,2,4-oxadiazole]",77%,100%
"Cc1nc(CSc2ccccc2N)no1 [Example 15, 3-(2-Aminophenylthiomethyl)-5-methyl-1,2,4-oxadiazole hydrochloride]",4%,86%
"Nc1cc(F)ccc1SCc1ncon1 [Example 16, 3-(2-Amino-4-fluorophenylthiomethyl)-1,2,4-oxadiazole]",81%,100%
"COc1ccc(SCc2ncon2)c(N(C)C)c1 [Example 17, 3-(2-Dimethylamino-4-methoxyphenylthiomethyl)-1,2,4-oxadiazole]",–,62%
"CN(C)c1cc(Cl)ccc1SCc1ncon1 [Example 18, 3-(4-Chloro-2-dimethylaminophenylthiomethyl)-1,2,4-oxadiazole]",–,95%
"CCOC(=O)Nc1ccccc1SCc1ncon1 [Example 19, 3-(2-Ethoxycarbonylaminophenylthiomethyl)-1,2,4-oxadiazole]",52%,99.9%
"COC(=O)Nc1ccccc1SCc1ncon1 [Example 20, 3-(2-methoxycarbonylaminophenylthiomethyl)-1,2,4-oxadiazole]",–,97.5%
"O=C(Nc1ccccc1SCc1ncon1)OCc1ccccc1 [Example 21, 3-(2-Benzyloxycarbonylaminophenylthiomethyl)-1,2,4-oxadiazole]",68%,100%

SMILES,inhibition in vivo at 10 mg/kg,inhibition in vivo at 100 mg/kg
"CC(=O)Nc1ccccc1SCc1ncon1 [Example 23, 3-(2-Acetylaminophenylthiomethyl)-1,2,4-oxadiazole]",38%,100%
"O=C(Nc1ccccc1SCc1ncon1)c1ccc(Cl)cc1 [Example 25, 3-[2-(4-chlorobenzamido)phenylthiomethyl]-1,2,4-oxadiazole]",64%,99.9%
"O=C(Nc1ccccc1SCc1ncon1)c1ccccc1 [Example 26, 3-(2-Benzamidophenythiomethyl)-1,2,4-oxadiazole]",52%,–
"COc1ccc(C(=O)Nc2ccccc2SCc2ncon2)cc1 [Example 27, 3-[2-(4-Methoxybenzamido)phenylthiomethyl]-1,2,4-oxadiazole]",73%,85%
"CC(C)(C)C(=O)Nc1ccccc1SCc1ncon1 [Example 28, 3-(2-Trimethylacetamidophenylthiomethyl)1,2,4-oxadiazole]",–,53%
"O=C(Nc1ccccc1SCc1ncon1)c1ccco1 [Example 29, 3-(2-Furanoylaminophenylthiomethyl)1,2,4-oxadiazole]",47%,100%
"O=C(Nc1ccccc1SCc1ncon1)c1cccs1 [Example 30, 3-(Thiophene-2-carbonylaminophenylthiomethyl)1,2,4-oxadiazole]",59%,–
"CS(=O)(=O)Nc1ccccc1SCc1ncon1 [Example 31, 3-(2-Methylsulphonamidophenylthiomethyl)-1,2,4-oxadiazole]",33%,–
"Cc1ccc(S(=O)(=O)Nc2ccccc2SCc2ncon2)cc1 [Example 32, 3-[2-(p-toluenesulphonamido)phenylthiomethyl]-1,2,4-oxadiazole]",–,43%
"S=C(Nc1ccccc1)Nc1ccccc1SCc1ncon1 [Example 33, N-[2-(1,2,4-oxadiazol-3-yl-methylthio)phenyl]-N^1-phenylthiourea]",10%,–
O=C(Nc1ccccc1SCc1ncon1)NC1CCCCC1 [Example 35],–,39%
"O=[N+]([O-])c1ccc(Oc2ccc(NC(=S)Nc3ccccc3SCc3ncon3)cc2)cc1 [Example 36, N-[2-(1,2,4-oxadiazol-3-yl-methylthio)phenyl]-N^1-4-(4-nitrophenyloxy)phenyl thiourea]",–,19%
"O=[N+]([O-])c1ccc(Sc2ccc(NC(=S)Nc3ccccc3SCc3ncon3)cc2)cc1 [Example 37, N-[2-(1,2,4-oxadiazol-3-yl-methylthio)phenyl]-N^1-4-(4-nitrophenylthio)phenyl thiourea]",50%,22%
"COc1ccc(C=Nc2ccccc2SCc2ncon2)cc1OC [Example 38, 3-[2-(3,4-Dimethoxybenzylideneamino)phenylthiomethyl]-1,2,4-oxadiazole]",9%,36%
"COc1ccc(C=Nc2ccccc2SCc2ncon2)cc1 [Example 39, 3-[2-(4-Methoxybenzylideneamino)phenylthiomethyl]-1,2,4-oxadiazole]",73%,99.7%
"Clc1ccccc1C=Nc1ccccc1SCc1ncon1 [Example 40, 3-[2-(2-Chlorobenzylideneamino)phenylthiomethyl]-1,2,4-oxadiazole]",82%,100%
"COc1cc(C=Nc2ccccc2SCc2ncon2)cc(OC)c1OC [Example 41, 3-[2-(3,4,5-Trimethoxybenzylideneamino)phenylthiomethyl]-1,2,4-oxadiazole]",–,100%
